{
  "source": "paper PMC7362765",
  "about": "(Accounts of chemical research, 2019)",
  "origin": "cited, not measured here",
  "system": "DF3",
  "assay": "oxidation to quinone […], saturation kinetics",
  "type": "biochemical, synthetic construct",
  "details": "diiron form, ambient O2; recounted from the authors' own ref 19",
  "data": [
    {"smiles": "CC(C)(C)c1cc(O)c(O)c(C(C)(C)C)c1", "note": "[compound 6, 3,5-di-tert-butylcatechol]", "values": [
      {"measurement": "Km", "value": 2100, "unit": "µM"}
    ]}
  ]
}
